Experimental data reported in patent US20250346600A1, “TRICYCLIC DERIVATIVES AND RELATED USES” (MOMA Therapeutics, Inc., priority 2023, published 2025).
Read-outs that look alike come from different tables or passages of the source.

Legend:
HCT116 cells = test: HCT116 (MSI) 7 day viability, CellTiter Glo; format: cell-based; settings: 7 days, read-out: HCT116 (MSI) Viability 7 Day Abs AC50
Summary of the method: (§1)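 Luminescence read-out (CellTiter Glo) after 7-day compound exposure at 37 °C. Seeding density 50 cells/well for HCT116, 500 cells/well for HT29. Background from cell-free medium wells; IC50 by four-parameter logistic fit, geometric mean of at least 2 replicates.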

HT29 cells = test: HT29 (MSS) 7 day viability, CellTiter Glo; format: cell-based; settings: 7 days, read-out: HT29 (MSS) Viability 7 Day CTGAbs AC50
Summary of the method: as §1

[1] = biological target: T1, Full length WRN protein (aa 2-1432) (Homo sapiens (Human), UniProt Q14191); test: WRN ATPase ADP-Glo biochemical assay, Assay Format B (100 μM ATP); settings: 0.25 nM WRN, 100 nM C6.18 ssDNA, 60 min preincubation, read-out: ATPase ADPGlo AC50 (uM)- Assay Format B
[2] = biological target: T1, Full length WRN protein (aa 2-1432); test: WRN ATPase ADP-Glo biochemical assay, Assay Format A (10 μM ATP); settings: 0.25 nM WRN, 100 nM C6.18 ssDNA, 30 min preincubation, read-out: ATPase ADPGlo AC50 (uM)- Assay Format A
Summary of the method: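 Sf9-expressed FLAG-AVI-TEV-tagged WRN (0.5 nM) preincubated 30 min with compound (11-point 3-fold dilution). Reaction started with 200 nM C6.18 39-mer ssDNA and 20 μM ATP (addition concentrations), run 30 min at room temperature. ADP measured by ADP-Glo luminescence; IC50 from four-parameter fit, geometric mean of ≥2 runs.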

T1 sequence (Q14191 2-1432): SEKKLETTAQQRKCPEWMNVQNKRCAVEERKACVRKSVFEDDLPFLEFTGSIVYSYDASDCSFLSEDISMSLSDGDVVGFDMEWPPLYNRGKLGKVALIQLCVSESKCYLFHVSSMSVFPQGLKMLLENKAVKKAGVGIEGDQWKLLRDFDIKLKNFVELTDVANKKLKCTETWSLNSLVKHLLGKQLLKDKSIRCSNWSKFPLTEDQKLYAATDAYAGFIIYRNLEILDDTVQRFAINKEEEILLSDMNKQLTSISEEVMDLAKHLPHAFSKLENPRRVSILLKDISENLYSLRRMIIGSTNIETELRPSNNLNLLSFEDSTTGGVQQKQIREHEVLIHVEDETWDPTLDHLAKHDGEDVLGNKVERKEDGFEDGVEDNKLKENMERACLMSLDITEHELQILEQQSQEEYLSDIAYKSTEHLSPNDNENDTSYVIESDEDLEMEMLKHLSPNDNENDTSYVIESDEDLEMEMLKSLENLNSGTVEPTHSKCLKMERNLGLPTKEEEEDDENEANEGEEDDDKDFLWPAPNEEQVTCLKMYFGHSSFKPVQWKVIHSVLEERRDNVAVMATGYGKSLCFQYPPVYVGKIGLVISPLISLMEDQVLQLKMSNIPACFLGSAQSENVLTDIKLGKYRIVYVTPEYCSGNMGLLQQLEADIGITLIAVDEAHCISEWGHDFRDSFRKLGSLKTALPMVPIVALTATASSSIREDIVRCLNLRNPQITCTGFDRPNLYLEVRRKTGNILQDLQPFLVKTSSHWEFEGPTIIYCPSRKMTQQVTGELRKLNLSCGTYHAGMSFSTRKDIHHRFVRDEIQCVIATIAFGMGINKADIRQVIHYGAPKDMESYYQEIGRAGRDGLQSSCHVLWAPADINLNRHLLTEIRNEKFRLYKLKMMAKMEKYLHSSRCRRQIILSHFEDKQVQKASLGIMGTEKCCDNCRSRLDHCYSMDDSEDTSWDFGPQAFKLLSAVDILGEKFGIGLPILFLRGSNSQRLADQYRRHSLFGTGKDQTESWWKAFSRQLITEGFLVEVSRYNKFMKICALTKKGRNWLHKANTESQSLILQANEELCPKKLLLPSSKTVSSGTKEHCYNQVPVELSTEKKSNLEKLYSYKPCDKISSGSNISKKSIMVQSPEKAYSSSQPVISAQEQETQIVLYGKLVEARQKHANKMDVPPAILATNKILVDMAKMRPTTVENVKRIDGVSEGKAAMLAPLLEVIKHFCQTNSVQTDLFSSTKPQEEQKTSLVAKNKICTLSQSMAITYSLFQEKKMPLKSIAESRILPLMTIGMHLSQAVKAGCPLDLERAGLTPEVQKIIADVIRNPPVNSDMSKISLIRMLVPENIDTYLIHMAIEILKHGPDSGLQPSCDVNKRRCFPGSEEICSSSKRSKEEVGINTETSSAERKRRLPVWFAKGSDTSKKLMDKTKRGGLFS

Row | SMILES | AC50 (HCT116 cells; Homo sapiens, HCT-116, 168 h) [nM] | AC50 (HT29 cells; Homo sapiens, HT-29, 168 h) [nM] | AC50 [1] [µM] | AC50 [2] [µM] | AC50 (HCT116 cells) [nM] | AC50 (HT29 cells) [nM]
1 | C=CC(=O)N1CCc2nn(-c3ccc(C4CC4)c(F)c3O)c3c2C(C1)N(C(=O)c1cnc(C(F)(F)F)c(O)c1)CC3 (stereo not drawn) [Compound 100, 1-(2-(4-cyclopropyl-3-fluoro-2-hydroxyphenyl)-5-(5-hydroxy-6-(trifluoromethyl)nicotinoyl)-2,3,4,5,5a,6,8,9-octahydro-7H-1,2,5,7-tetraazabenzo[cd]azulen-7-yl)prop-2-en-1-one] | 100 to 250 | > 3000 | 0.015 to 0.055 | 0.0015 to 0.005 |  | 
2 | C=CC(=O)N1CC(C)c2nn(-c3ccc(C(C)C)cc3O)c3c2C(C1)N(C(=O)c1ccc(Br)c2[nH]cnc12)CC3 (stereo not drawn) [Compound 31, 1-(5-(7-bromo-1H-benzo[d]imidazole-4-carbonyl)-2-(2-hydroxy-4-isopropylphenyl)-9-methyl-2,3,4,5,5a,6,8,9-octahydro-7H-1,2,5,7-tetraazabenzo[cd]azulen-7-yl)prop-2-en-1-one] |  | > 3000 | 0.015 to 0.055 | 0.0015 to 0.005 | 250 to 500 | 
3 | C=CC(=O)N1CCc2nn(-c3ccc(C4CC4)cc3O)c3c2C(C1)N(C(=O)c1ccc(Br)c2[nH]cnc12)CC3 (stereo not drawn) [Compound 5, 1-(5-(7-bromo-1H-benzo[d]imidazole-4-carbonyl)-2-(4-cyclopropyl-2-hydroxyphenyl)-2,3,4,5,5a,6,8,9-octahydro-7H-1,2,5,7-tetraazabenzo[cd]azulen-7-yl)prop-2-en-1-one] | 1 to 100 | > 3000 | 0.005 to 0.015 | < 0.0015 |  | 
4 | C=CC(=O)N1CCc2nc(-c3ccc(C(C)C)cc3)n3c2C(C1)N(C(=O)c1ccc(Br)c2[nH]cnc12)CC3 (stereo not drawn) [Compound 38, 1-(5-(7-bromo-1H-benzo[d]imidazole-4-carbonyl)-2-(4-isopropylphenyl)-4,5,5a,6,8,9-hexahydro-1,2a,5,7-tetraazabenzo[cd]azulen-7(3H)-yl)prop-2-en-1-one] | 1 to 100 | > 3000 | 0.005 to 0.015 | < 0.0015 |  | 
5 | C=CC(=O)N1CCc2nn(-c3ccc(C(C)C)cc3)c3c2C(C1)N(C(=O)c1cnc(C(F)(F)F)c(OC2CNC2)c1)CC3 (stereo not drawn) [Compound 60, 1-(5-(5-(azetidin-3-yloxy)-6-(trifluoromethyl)nicotinoyl)-2-(4-isopropylphenyl)-2,3,4,5,5a,6,8,9-octahydro-7H-1,2,5,7-tetraazabenzo[cd]azulen-7-yl)prop-2-en-1-one] | > 1000 | > 3000 | > 0.055 | 0.005 to 0.015 |  | 
6 | C=CC(=O)N1CCc2nn(-c3ccc(C4CC4)cc3)c3c2C(C1)N(C(=O)c1cnc(Cl)cc1N)CC3 (stereo not drawn) [Compound 162, 1-(5-(4-amino-6-chloronicotinoyl)-2-(4-cyclopropylphenyl)-2,3,4,5,5a,6,8,9-octahydro-7H-1,2,5,7-tetraazabenzo[cd]azulen-7-yl)prop-2-en-1-one] |  |  | 0.005 to 0.015 | < 0.0015 | 1 to 100 | > 3000
7 | C=CC(=O)N1CCc2nn(-c3ccc(C(C)C)cc3)c3c2C(C1)N(C(=O)c1ccc(C(F)(F)F)c(=O)[nH]1)CC3 (stereo not drawn) [Compound 58, 6-(7-acryloyl-2-(4-isopropylphenyl)-3,4,5,5a,6,7,8,9-octahydro-2H-1,2,5,7-tetraazabenzo[cd]azulene-5-carbonyl)-3-(trifluoromethyl)pyridin-2(1H)-one] | 100 to 250 | > 3000 | 0.015 to 0.055 | 0.0015 to 0.005 |  | 
8 | C=CC(=O)N1CCc2nn(-c3ccc(C4CCC4)cc3O)c3c2C(C1)N(C(=O)c1ccc2c(Br)n[nH]c2c1)CC3 (stereo not drawn) [Compound 24, 1-(5-(3-bromo-1H-indazole-6-carbonyl)-2-(4-cyclobutyl-2-hydroxyphenyl)-2,3,4,5,5a,6,8,9-octahydro-7H-1,2,5,7-tetraazabenzo[cd]azulen-7-yl)prop-2-en-1-one] | 1 to 100 | > 3000 | 0.005 to 0.015 | < 0.0015 |  | 
9 | C=CC(=O)N1CCc2nn(-c3ccc(C4CCC4)cc3O)c3c2C(C1)N(C(=O)c1ccc(Br)c2[nH]cnc12)CC3 (stereo not drawn) [Compound 23, 1-(5-(7-bromo-1H-benzo[d]imidazole-4-carbonyl)-2-(4-cyclobutyl-2-hydroxyphenyl)-2,3,4,5,5a,6,8,9-octahydro-7H-1,2,5,7-tetraazabenzo[cd]azulen-7-yl)prop-2-en-1-one] | 1 to 100 | > 3000 | 0.0015 to 0.005 | < 0.0015 |  | 
10 | C=CC(=O)N1CC(OC)c2nn(-c3ccc(C4CC4)cc3)c3c2C(C1)N(C(=O)c1cnc(C(F)(F)F)cc1N)CC3 (stereo not drawn) [Compound 187, 1-(5-(4-amino-6-(trifluoromethyl)nicotinoyl)-2-(4-cyclopropylphenyl)-9-methoxy-2,3,4,5,5a,6,8,9-octahydro-7H-1,2,5,7-tetraazabenzo[cd]azulen-7-yl)prop-2-en-1-one] | 1 to 100 | > 3000 | 0.005 to 0.015 | < 0.0015 |  | 
11 | C=CC(=O)N1CCc2nn(-c3ccc(C4CCC4(F)F)cc3O)c3c2C(C1)N(C(=O)c1ccc(Br)c2[nH]cnc12)CC3 (stereo not drawn) [Compound 6, 1-(5-(7-bromo-1H-benzo[d]imidazole-4-carbonyl)-2-(4-(2,2-difluorocyclobutyl)-2-hydroxyphenyl)-2,3,4,5,5a,6,8,9-octahydro-7H-1,2,5,7-tetraazabenzo[cd]azulen-7-yl)prop-2-en-1-one] | 1 to 100 | > 3000 | 0.015 to 0.055 | 0.0015 to 0.005 |  | 
12 | C=CC(=O)N1CCOc2nn(-c3ccc(C(C)C)cc3)c3c2C(C1)N(C(=O)c1cnc(C(F)(F)F)c(O)c1)CC3 (stereo not drawn) [Compound 47, 1-(5-(5-hydroxy-6-(trifluoromethyl)nicotinoyl)-2-(4-isopropylphenyl)-2,3,4,5,5a,6,8,9-octahydro-7H-10-oxa-1,2,5,7-tetraazacycloocta[cd]inden-7-yl)prop-2-en-1-one] | > 1000 | > 3000 | > 0.055 | 0.005 to 0.015 |  | 
13 | C=CC(=O)N1CCc2nn(-c3ccc(C4CC4)cc3)c3c2C(C1)N(C(=O)c1cnc(Cl)c(F)c1N)CC3 (stereo not drawn) [Compound 181, 1-(5-(4-amino-6-chloro-5-fluoronicotinoyl)-2-(4-cyclopropylphenyl)-2,3,4,5,5a,6,8,9-octahydro-7H-1,2,5,7-tetraazabenzo[cd]azulen-7-yl)prop-2-en-1-one] | 1 to 100 | > 3000 | 0.0015 to 0.005 | < 0.0015 |  | 
14 | C=CC(=O)N1CCc2nn(-c3ccc(C4CC4)cc3)c3c2C(C1)N(C(=O)c1ccc(OC(F)F)nc1)CC3 (stereo not drawn) [Compound 69, 1-(2-(4-cyclopropylphenyl)-5-(6-(difluoromethoxy)nicotinoyl)-2,3,4,5,5a,6,8,9-octahydro-7H-1,2,5,7-tetraazabenzo[cd]azulen-7-yl)prop-2-en-1-one] | 100 to 250 | > 3000 | 0.015 to 0.055 | 0.005 to 0.015 |  | 
15 | C=CC(=O)N1CCc2nn(-c3ccc(C4CC4)cc3)c3c2C(C1)N(C(=O)c1cnc(C(F)(F)F)c(O)c1)CC3 (stereo not drawn) [Compound 1, 1-(2-(4-cyclopropylphenyl)-5-(5-hydroxy-6-(trifluoromethyl)nicotinoyl)-2,3,4,5,5a,6,8,9-octahydro-7H-1,2,5,7-tetraazabenzo[cd]azulen-7-yl)prop-2-en-1-one] | 100 to 250 | > 3000 | 0.015 to 0.055 | 0.0015 to 0.005 |  | 
